Reference: PubChem BioAssay AID248 (DTP/NCI, 2004)
Several values for one entry are separate records, joined by “and”; a condition that tells them apart may be missing. Equal entries are not always repeated. Toxic doses and inconclusive results are not listed. Rule as the data show it: active = T/C of 150% or more; inactive = T/C below 125%.

Test system: L1210 leukemia ip in BDF1 mice, survival T/C
Assay: NCI In Vivo Anticancer Drug Screen. Data for tumor model L1210 Leukemia (intraperitoneal) in B6D2F1 (BDF1) mice
Settings: higher = longer survival
Method in brief: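 Read-out is survival time, reported as the treated-group measurement over the vehicle-control measurement.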

[1] = endpoint: mean survival time, dose: 100.0 mg/kg/injection, schedule: Q01DX009 (ip), vehicle: Klucel (hydroxypropylcellulose) (HPC)
[2] = endpoint: mean survival time, dose: 100.0 mg/kg/injection, schedule: Q04DX003 (ip), vehicle: Klucel (hydroxypropylcellulose) (HPC)
[3] = endpoint: mean survival time, dose: 100.0 mg/kg/injection, schedule: Q04DX002 (ip), vehicle: saline
[4] = endpoint: mean survival time, dose: 200.0 mg/kg/injection, schedule: Q04DX002 (ip), vehicle: saline
[5] = endpoint: mean survival time, dose: 200.0 mg/kg/injection, schedule: Q04DX003 (ip), vehicle: saline
[6] = endpoint: mean survival time, dose: 400.0 mg/kg/injection, schedule: Q04DX003 (ip), vehicle: saline
[7] = endpoint: mean survival time, dose: 50.0 mg/kg/injection, schedule: Q01DX009 (ip), vehicle: saline with Tween-80
[8] = endpoint: mean survival time, dose: 100.0 mg/kg/injection, schedule: Q01DX009 (ip), vehicle: saline with Tween-80
[9] = endpoint: mean survival time, dose: 200.0 mg/kg/injection, schedule: Q01DX009 (ip), vehicle: saline with Tween-80
[10] = endpoint: mean survival time, dose: 6.25 mg/kg/injection, schedule: Q01DX009 (ip), vehicle: Klucel (hydroxypropylcellulose) (HPC)
[11] = endpoint: mean survival time, dose: 12.5 mg/kg/injection, schedule: Q01DX009 (ip), vehicle: Klucel (hydroxypropylcellulose) (HPC)
[12] = endpoint: mean survival time, dose: 25.0 mg/kg/injection, schedule: Q04DX003 (ip), vehicle: Klucel (hydroxypropylcellulose) (HPC)
[13] = endpoint: mean survival time, dose: 50.0 mg/kg/injection, schedule: Q04DX003 (ip), vehicle: Klucel (hydroxypropylcellulose) (HPC)
[14] = endpoint: mean survival time, dose: 100.0 mg/kg/injection, schedule: Q04DX003 (ip), vehicle: saline with Tween-80
[15] = endpoint: mean survival time, dose: 100.0 mg/kg/injection, schedule: Q01DX001 (ip), vehicle: saline with Tween-80
[16] = endpoint: mean survival time, dose: 200.0 mg/kg/injection, schedule: Q01DX001 (ip), vehicle: saline with Tween-80
[17] = endpoint: mean survival time, dose: 400.0 mg/kg/injection, schedule: Q01DX001 (ip), vehicle: saline with Tween-80
[18] = endpoint: mean survival time, dose: 200.0 mg/kg/injection, schedule: Q04DX003 (ip), vehicle: saline with Tween-80
[19] = endpoint: mean survival time, dose: 400.0 mg/kg/injection, schedule: Q04DX003 (ip), vehicle: saline with Tween-80
[20] = endpoint: mean survival time, dose: 100.0 mg/kg/injection, schedule: Q01DX009 (ip), vehicle: saline
[21] = endpoint: mean survival time, dose: 200.0 mg/kg/injection, schedule: Q01DX009 (ip), vehicle: saline
[22] = endpoint: mean survival time, dose: 400.0 mg/kg/injection, schedule: Q01DX009 (ip), vehicle: saline

Measured: T/C

CCCCCCCCC1CCC(N)CC1 (stereo unspecified)
inactive: [1] 95 % of control | [2] 95 % of control | endpoint: mean survival time, dose: 200.0 mg/kg/injection, schedule: Q01DX009 (ip), vehicle: Klucel (hydroxypropylcellulose) (HPC) 93 % of control | endpoint: mean survival time, dose: 200.0 mg/kg/injection, schedule: Q04DX003 (ip), vehicle: Klucel (hydroxypropylcellulose) (HPC) 101 % of control | endpoint: mean survival time, dose: 400.0 mg/kg/injection, schedule: Q04DX003 (ip), vehicle: Klucel (hydroxypropylcellulose) (HPC) 98 % of control

CCn1cc(C(=O)O)c(=O)c2cccc(OC)c21
inactive: endpoint: mean survival time, dose: 50.0 mg/kg/injection, schedule: Q04DX002 (ip), vehicle: saline 86 % of control | [3] 115 % of control | [4] 100 % of control

CCCCCC(C)N (stereo unspecified)
inactive: endpoint: mean survival time, dose: 5.0 mg/kg/injection, schedule: Q01DX001 (ip), vehicle: saline 101 % of control | endpoint: mean survival time, dose: 10.0 mg/kg/injection, schedule: Q01DX001 (ip), vehicle: saline 101 % of control | endpoint: mean survival time, dose: 20.0 mg/kg/injection, schedule: Q01DX001 (ip), vehicle: saline 95 % of control | endpoint: mean survival time, dose: 40.0 mg/kg/injection, schedule: Q01DX001 (ip), vehicle: saline 103 % of control | endpoint: mean survival time, dose: 80.0 mg/kg/injection, schedule: Q01DX001 (ip), vehicle: saline 101 % of control

O=C1NC(=O)C([N+](=O)[O-])C(=O)N1
inactive: endpoint: mean survival time, dose: 12.5 mg/kg/injection, schedule: Q04DX003 (ip), vehicle: saline 104 % of control | endpoint: mean survival time, dose: 25.0 mg/kg/injection, schedule: Q04DX003 (ip), vehicle: saline 95 % of control | endpoint: mean survival time, dose: 50.0 mg/kg/injection, schedule: Q04DX003 (ip), vehicle: saline 93 % of control | [5] 98 % of control | [6] 91 % of control

O=C(/C=C\C=C\c1ccc2c(c1)OCO2)N1CCCCC1
inactive: [7] 105 % of control | [8] 105 % of control | [9] 105 % of control

Clc1ccc2nc(CBr)cnc2c1
inactive: endpoint: mean survival time, dose: 3.13 mg/kg/injection, schedule: Q01DX009 (ip), vehicle: Klucel (hydroxypropylcellulose) (HPC) 97 % of control | [10] 95 % of control and 102 % of control | [11] 100 % of control and 120 % of control and 87 % of control | endpoint: mean survival time, dose: 25.0 mg/kg/injection, schedule: Q01DX009 (ip), vehicle: saline with Tween-80 100 % of control | [12] 95 % of control | [7] 95 % of control | [13] 96 % of control | [2] 93 % of control | [14] 90 % of control

Nc1cc(SC(c2ccccc2)c2ccccc2)c([N+](=O)[O-])c(N)n1
inactive: [15] 92 % of control | [16] 101 % of control | [17] 95 % of control

OC(CCN1CCCC1)(c1ccccc1)C1CCCCC1 (stereo unspecified)
inactive: [10] 104 % of control and 108 % of control | [11] 95 % of control and 97 % of control and 102 % of control | endpoint: mean survival time, dose: 25.0 mg/kg/injection, schedule: Q01DX009 (ip), vehicle: Klucel (hydroxypropylcellulose) (HPC) 103 % of control and 105 % of control | [12] 111 % of control | endpoint: mean survival time, dose: 50.0 mg/kg/injection, schedule: Q01DX009 (ip), vehicle: Klucel (hydroxypropylcellulose) (HPC) 100 % of control and 106 % of control (2×) | [13] 101 % of control | [1] 103 % of control and 91 % of control | [2] 92 % of control | endpoint: median survival time, dose: 12.5 mg/kg/injection, schedule: Q01DX009 (ip), vehicle: Klucel (hydroxypropylcellulose) (HPC) 96 % of control | endpoint: median survival time, dose: 25.0 mg/kg/injection, schedule: Q01DX009 (ip), vehicle: Klucel (hydroxypropylcellulose) (HPC) 106 % of control | endpoint: median survival time, dose: 50.0 mg/kg/injection, schedule: Q01DX009 (ip), vehicle: Klucel (hydroxypropylcellulose) (HPC) 103 % of control | endpoint: median survival time, dose: 100.0 mg/kg/injection, schedule: Q01DX009 (ip), vehicle: Klucel (hydroxypropylcellulose) (HPC) 102 % of control

Cc1c(Cl)cccc1NC(=O)Oc1ccc(-c2ccccc2)cc1
inactive: endpoint: mean survival time, dose: 50.0 mg/kg/injection, schedule: Q04DX003 (ip), vehicle: saline with Tween-80 97 % of control | [8] 95 % of control and 97 % of control | endpoint: mean survival time, dose: 100.0 mg/kg/injection, schedule: Q04DX002 (ip), vehicle: saline with Tween-80 93 % of control and 91 % of control | [14] 101 % of control | [9] 104 % of control and 89 % of control | endpoint: mean survival time, dose: 200.0 mg/kg/injection, schedule: Q04DX002 (ip), vehicle: saline with Tween-80 96 % of control | [18] 100 % of control | endpoint: mean survival time, dose: 400.0 mg/kg/injection, schedule: Q04DX002 (ip), vehicle: saline with Tween-80 96 % of control and 103 % of control

CC(NC(N)=O)C(=O)O (stereo unspecified)
inactive: [3] 89 % of control | [4] 104 % of control | endpoint: mean survival time, dose: 400.0 mg/kg/injection, schedule: Q04DX002 (ip), vehicle: saline 93 % of control

CC1CCC(C(C)C)/C(=N\O)C1 (stereo unspecified)
inactive: [15] 93 % of control | [16] 97 % of control | [17] 93 % of control

COC(=O)NC1CC=CCC1I (stereo unspecified)
inactive: [14] 100 % of control | [18] 102 % of control | [19] 102 % of control

CC(=O)OCC(=O)C1CCC=CC1OC(C)=O (stereo unspecified)
inactive: [20] 105 % of control | endpoint: mean survival time, dose: 100.0 mg/kg/injection, schedule: Q04DX003 (ip), vehicle: saline 93 % of control | [21] 105 % of control | [5] 91 % of control | [22] 98 % of control | [6] 91 % of control

Nc1ncccc1[N+](=O)[O-]
inactive: [8] 109 % of control | [9] 98 % of control | endpoint: mean survival time, dose: 400.0 mg/kg/injection, schedule: Q01DX009 (ip), vehicle: saline with Tween-80 112 % of control

CCOC(=O)NP(=O)(Nc1ccc(C)cc1)Nc1ccc(C)cc1
inactive: endpoint: mean survival time, dose: 50.0 mg/kg/injection, schedule: Q01DX001 (ip), vehicle: carboxymethylcellulose (CMC) 104 % of control | endpoint: mean survival time, dose: 100.0 mg/kg/injection, schedule: Q01DX001 (ip), vehicle: carboxymethylcellulose (CMC) 98 % of control | endpoint: mean survival time, dose: 200.0 mg/kg/injection, schedule: Q01DX001 (ip), vehicle: carboxymethylcellulose (CMC) 95 % of control | endpoint: mean survival time, dose: 400.0 mg/kg/injection, schedule: Q01DX001 (ip), vehicle: carboxymethylcellulose (CMC) 98 % of control

CCCCCCCCCCN=C(N)CSSCC(N)=NCCCCCCCCCC
inactive: endpoint: mean survival time, dose: 0.39 mg/kg/injection, schedule: Q04DX002 (ip), vehicle: saline with Tween-80 95 % of control | endpoint: mean survival time, dose: 0.78 mg/kg/injection, schedule: Q04DX002 (ip), vehicle: saline with Tween-80 100 % of control | endpoint: mean survival time, dose: 1.56 mg/kg/injection, schedule: Q04DX002 (ip), vehicle: saline with Tween-80 105 % of control

CC1(C)N=C(N)N=C(N)N1CCc1ccccc1
inactive: endpoint: mean survival time, dose: 25.0 mg/kg/injection, schedule: Q01DX001 (ip), vehicle: saline with Tween-80 101 % of control | endpoint: mean survival time, dose: 50.0 mg/kg/injection, schedule: Q01DX001 (ip), vehicle: saline with Tween-80 104 % of control

O=CNCCNC=O
inactive: [20] 102 % of control | [21] 104 % of control | [22] 98 % of control

O=C1CC(N2C(=O)C3C4CCC(CC4)C3C2=O)C(=O)N1 (stereo unspecified)
inactive: [14] 96 % of control | [18] 100 % of control | [19] 112 % of control
